{
  "source": "patent US8080237B2",
  "about": "“Use of tellurium compounds for protection from ultra-violet radiation” (priority 2005, dated 2011)",
  "key": {"[1]": {"system": "interferon (IFN)", "conditions": "humans; Nat. Immun. Cell Growth Regul. 9(3):182-90, 1990; Immunology 70(4):473-7, 1990; cited from earlier work"}, "[2]": {"system": "IL-10", "conditions": "Cell Immunol. 176(2):180-5, 1997; J. Natl. Cancer Inst. 88(18):1276-84, 1996; cited from earlier work"}, "[3]": {"system": "rats", "assay": "Toxicity tests (LD50) in rats", "type": "in vivo", "conditions": "intravenous and intramuscular administration"}, "[4]": {"system": "interferon (IFN)", "conditions": "mice; J. Natl. Cancer Inst. 88(18):1276-84, 1996; cited from earlier work"}, "[5]": {"system": "IL-10 gene expression in epidermal cells", "assay": "RT-PCR for IL-10 transcripts in epidermal cells from suction blisters after in vivo UVB irradiation of volunteers' forearms", "design": "species or system human", "conditions": "3% AS101 in petroleum jelly U.S.P., topical on forearm before UVB; blisters 24 h after UVB exposure; compared with UVB alone; G3PDH as control transcript", "experimental": "In normal volunteers, suction blisters were induced by vacuum and heat on normal skin, or on UVB-irradiated skin of volar forearms 24 h after exposure. Single cell suspensions of epidermal cells were prepared by limited trypsinization of the blister roof. Briefly, epidermal sheets were washed in PBS (Biofluids. Roekville. MD) and floated in 0.5% trypsin (United Stares Biochemical Corp. Cleveland. OH) for 45 min al 37° C., transferred to HBSS (Biofluids) containing 0.05 DNase (Sigma Chemical Co. SI. Louis. MO) and 10% heat-inactivated pooled human AB^+ serum (Sigma Chemical Co.) and disaggregated by repeated aspirations and expulsions through a syringe. […]\nUVB irradiation in vivo was performed with 4 FS20 fluorescent lamps (Sylvania. Springfield. Va.) that emit wavelengths between 280 and 320 nm with a peak at 313 nm. Light intensity was determined using an IL-770 Germicidal-Erythemal radiometer (international Light Inc. Newburyport. Me.) equipped with a sensor and a 313-nm filter. […]\nThe frozen pellets of epidermal cells were dissolved by repeated pipetting 800 μl of lysis bufer and transferred to RNase-free Eppendorf tubes containing 500 μg of superparamagnetic polystyrene Dynaheads Oligo(dT)25 (Dynal. Great Neck. N.Y.). […] The concentration of mRNA was measured on a Beckman DU-64 spectrophotometer employing a 5 μl Ultra microcell. […]"}},
  "note": "Where two headings read alike, the source gives them in different places.",
  "data": [
    {"smiles": "Cl[TeH]1(Cl)(Cl)OCCO1.N", "note": "[AS101, ammonium trichloro(dioxyethylene-O,O′)tellurate]", "values": [
      {"measurement": "activation of interferon (IFN)", "setting": "[1]", "value": "potent activator of interferon"},
      {"measurement": "effect on IL-10 at the m-RNA level", "setting": "[2]", "value": "inhibit IL-10 at the m-RNA level"},
      {"measurement": "LD50 relative to the immunologically effective dose", "setting": "[3]", "value": "500-1000 folds"},
      {"measurement": "activation of interferon (IFN)", "setting": "[4]", "value": "potent activator of interferon"},
      {"measurement": "IL-10 transcription in epidermal cells after UVB (RT-PCR, FIG. 1)", "setting": "[5]", "value": "significant decrease of IL-10"}
    ]}
  ]
}
